Legend:
[1] = biological target: T1, prostate-specific membrane antigen (PSMA) (Homo sapiens, UniProt Q04609); test: blocking of […]Lu-PSMA-617 binding with […] 2-PMPA, autoradiography
T1 construct: gene FOLH1

[2] = biological target: T2, prostate-specific membrane antigen (PSMA) (Sus scrofa, UniProt O77564); test: single-concentration ([…]) blocking of […]Lu-PSMA-617 binding, autoradiography
T2 construct: gene FOLH1; pig salivary gland tissue cryosections

[3] = biological target: T2, prostate-specific membrane antigen (PSMA); test: radioligand competition with […]Lu-PSMA-617, autoradiography on pig salivary gland tissue

T2 sequence (O77564 whole entry): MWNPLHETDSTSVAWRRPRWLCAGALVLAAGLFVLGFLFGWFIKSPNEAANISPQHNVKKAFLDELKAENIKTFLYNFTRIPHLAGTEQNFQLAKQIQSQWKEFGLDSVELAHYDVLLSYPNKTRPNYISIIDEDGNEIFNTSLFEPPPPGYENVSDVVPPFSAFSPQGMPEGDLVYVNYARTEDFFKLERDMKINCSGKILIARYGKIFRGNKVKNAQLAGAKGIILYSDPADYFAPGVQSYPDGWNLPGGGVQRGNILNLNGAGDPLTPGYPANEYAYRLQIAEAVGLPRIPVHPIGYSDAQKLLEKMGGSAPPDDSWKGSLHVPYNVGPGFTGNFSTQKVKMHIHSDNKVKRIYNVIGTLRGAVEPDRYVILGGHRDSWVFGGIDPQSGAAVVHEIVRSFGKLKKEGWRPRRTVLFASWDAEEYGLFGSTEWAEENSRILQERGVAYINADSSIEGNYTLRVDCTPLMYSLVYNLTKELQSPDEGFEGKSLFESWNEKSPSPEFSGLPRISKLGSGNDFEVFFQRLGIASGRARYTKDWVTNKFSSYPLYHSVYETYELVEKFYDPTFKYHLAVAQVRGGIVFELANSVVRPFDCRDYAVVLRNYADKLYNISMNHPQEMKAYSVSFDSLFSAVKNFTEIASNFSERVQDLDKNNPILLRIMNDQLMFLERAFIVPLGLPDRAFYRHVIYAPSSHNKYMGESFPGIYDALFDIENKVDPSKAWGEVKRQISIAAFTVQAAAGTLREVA
T1 sequence (Q04609 whole entry): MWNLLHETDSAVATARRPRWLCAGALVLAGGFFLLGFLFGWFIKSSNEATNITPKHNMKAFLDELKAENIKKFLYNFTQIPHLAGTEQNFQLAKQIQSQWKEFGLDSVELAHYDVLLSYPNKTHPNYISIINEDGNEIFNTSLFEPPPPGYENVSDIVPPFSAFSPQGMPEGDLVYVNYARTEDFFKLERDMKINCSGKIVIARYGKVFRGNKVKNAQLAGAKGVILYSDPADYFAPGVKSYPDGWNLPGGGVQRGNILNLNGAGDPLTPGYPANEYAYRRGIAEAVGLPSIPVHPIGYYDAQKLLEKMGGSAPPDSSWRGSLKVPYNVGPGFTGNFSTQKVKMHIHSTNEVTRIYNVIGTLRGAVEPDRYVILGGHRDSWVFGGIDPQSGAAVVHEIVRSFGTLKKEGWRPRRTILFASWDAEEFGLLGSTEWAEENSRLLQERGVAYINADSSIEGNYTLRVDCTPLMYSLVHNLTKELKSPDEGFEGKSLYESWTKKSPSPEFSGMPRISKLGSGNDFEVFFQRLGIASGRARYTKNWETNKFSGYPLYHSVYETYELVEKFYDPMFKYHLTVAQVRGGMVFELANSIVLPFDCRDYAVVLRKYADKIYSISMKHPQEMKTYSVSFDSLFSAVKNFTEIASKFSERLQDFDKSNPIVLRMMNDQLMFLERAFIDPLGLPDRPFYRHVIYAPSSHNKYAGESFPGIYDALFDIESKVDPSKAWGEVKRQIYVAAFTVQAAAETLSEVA

SMILES	blocking of [177Lu]Lu-PSMA-617 binding with 80 μM 2-PMPA, autoradiography [1]	single-concentration (80 μM) blocking of [177Lu]Lu-PSMA-617 binding, autoradiogr [2]	IC50 [3]
O=C(O)CCC(CP(=O)(O)O)C(=O)O (stereo not drawn) [2-PMPA, 2-Phosphonomethyl pentanedioic acid]	In contrast, LNCaP membrane pellets only showed a negligible non-specific bound fraction.	Additional blocking with 2-PMPA, a highly potent PSMA-inhibitor, resulted in a reduced uptake of radioligand in the glandular areas	–
O=C(O)CC[C@H](NC(=O)N[C@@H](CCCCNC(=O)[C@H](Cc1ccc2ccccc2c1)NC(=O)[C@H]1CC[C@H](CNC(=O)CN2CCN(CC(=O)O)CCN(CC(=O)O)CCN(CC(=O)O)CC2)CC1)C(=O)O)C(=O)O [PSMA-617]	–	–	6 ± 0.1 nM

— article PMC6469177, “[^177Lu]Lu-PSMA-617 Salivary Gland Uptake Characterized by Quantitative In Vitro Autoradiography” (Pharmaceuticals, 2019)
